Results taken from patent US12226425B2, “Inhibitors of ARG1 and/or ARG2” (Arcus Biosciences, Inc., priority 2018, dated 2025).

Biological target: T1, recombinant human ARG1 (Homo sapiens, UniProt P05089)
T1 sequence (P05089 1-322): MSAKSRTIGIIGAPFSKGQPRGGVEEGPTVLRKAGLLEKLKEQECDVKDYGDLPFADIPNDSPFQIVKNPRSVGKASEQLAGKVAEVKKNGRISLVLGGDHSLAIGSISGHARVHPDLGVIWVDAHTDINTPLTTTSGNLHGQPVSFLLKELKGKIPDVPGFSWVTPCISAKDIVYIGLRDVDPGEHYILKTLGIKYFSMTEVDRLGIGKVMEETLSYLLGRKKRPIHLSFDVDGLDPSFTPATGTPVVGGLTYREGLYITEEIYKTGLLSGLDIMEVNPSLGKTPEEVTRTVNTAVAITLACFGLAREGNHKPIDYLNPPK
Test: Arginase coupled enzymatic assay using recombinant human ARG1
Assay type: biochemical
Conditions: 2 nM ARG1, 0.8 mM L-Arginine, 10 mM sodium phosphate pH 7.4, 0.1 mM MnCl2, 37° C., absorption at 570 nm; read-out: hARG1 potency (IC50)
Experimental: Purified recombinant human ARG1 and ARG2 were prepared in 50 mM Bicine, pH 8.5, 100 μM MnCl2, 20% glycerol and 1mM DTT at a final stock concentration of 14.4 μM and 7.56 μM respectively. 2.5 nM of either ARG1 or ARG2 were incubated with varying concentrations of compounds in 10 mM sodium phosphate, pH 7.4, 0.1 mM MnCl2 and 2.5% DMSO in a total volume of 40 μl in a 384-well microplate (Corning™ #3640) at 37° C. for 1 h. The arginase enzymatic reaction was initiated by addition of 10 μl of 4 mM L-Arginine pre-incubated in 10 mM sodium phosphate, pH 7.4, and 0.1 mM MnCl2 at 37° C. into the enzyme and compound mixture, giving the final reaction conditions: 2 nM of ARG1 or ARG2 and 0.8 mM of L-Arginine in 10 mM sodium phosphate, pH 7.4, 0.1 mM MnCl2 and 2% DMSO with varying concentrations of compounds. Following 2 h incubation at 37° C., the arginase enzymatic reaction was stopped by transfer of 10 μl of reaction into 10 μl of detection mix (204 μM Amino-2-Borono-6-Hexanoic Acid, 0.25 μl Arginase Enzyme mix, 0.25 μl Arginase Developer, 0.25 μl Arginase Converter Enzyme in Arginase Assay Buffer from Arginase Activity Colorimetric Assay Kit, BioVision Inc. #K755-100) in a transparent 384-well microplate (Greiner #781801). The plate was immediately put into a plate reader (Synergy™ Neo2 Multi-Mode Microplate Reader) to monitor absorption at 570 nm at 37° C. Absorption values at 12˜20 min were used to calculate compound potency. The value of the DMSO blank (MIN inhibition=100% activity) was used as a negative control. The positive control was established by adding 8 μl of enzyme and DMSO mix into 10 μl of detection mix followed by addition of 2 μl of L-Arginine (MAX inhibition=0% activity). To calculate the percent activity, Equation 1 was used. Abs570nm is the value at a given compound concentration:
A counter-screen was performed to identify any inhibition of the coupling enzymes by the test compounds. 10 μl of 0.26 mM of urea with varying concentrations of compounds in 10 mM sodium phosphate, pH 7.4, 0.1 mM MnCl2 and 2% DMSO were added into 10 μl of detection mix in place of the arginase enzymatic reaction mix. Absorption was monitored at 570 nm as described above. The values of a no substrate blank (without urea; MAX inhibition=0% activity) and a DMSO blank (MIN inhibition=100% activity) were used as positive and negative controls respectively. […] Inactivity in the counter-screen was used to confirm that results accurately reflected IC50 values for ARG1 and ARG2.

Row | Structure (SMILES) | IC50
1 | CC[C@H](N)c1cc2c(cc1Cl)C[C@H](CCCB(O)O)[C@]2(NC)C(=O)O | < 0.1 µM
2 | NCc1ccc2c(c1)C[C@H](CCCB(O)O)[C@]2(N)C(=O)O | < 0.1 µM
3 | CC[C@@H](NC)c1cc2c(cc1F)C[C@H](CCCB(O)O)[C@]2(NC)C(=O)O | < 0.1 µM
4 | CN[C@@]1(C(=O)O)c2cc([C@H](N)C(C)C)c(Cl)cc2C[C@@H]1CCCB(O)O | < 0.1 µM
5 | N[C@@]1(C(=O)O)c2cccnc2C[C@@H]1CCCB(O)O | > 1 µM
6 | CN[C@@]1(C(=O)O)c2cc(C3(N)CC3)c(F)cc2C[C@@H]1CCCB(O)O | < 0.1 µM
7 | C[C@]1(CCCB(O)O)Cc2ccccc2[C@@]1(N)C(=O)O | > 1 µM
8 | N#Cc1ccc2c(c1)[C@@](N)(C(=O)O)[C@@H](CCCB(O)O)C2 | > 1 µM
9 | CN[C@@]1(C(=O)O)c2cc(CN3CC(F)(F)C3)c(Cl)cc2C[C@@H]1CCCB(O)O | 0.1 to 1 µM
10 | CN[C@@]1(C(=O)O)c2cc(CNCC(F)(F)F)c(F)cc2C[C@@H]1CCCB(O)O | 0.1 to 1 µM
11 | CN[C@@]1(C(=O)O)c2cc(-c3cc(F)ccc3CN)c(F)cc2C[C@@H]1CCCB(O)O | < 0.1 µM
12 | CN[C@@]1(C(=O)O)c2cc(-c3ccccc3CN)c(F)cc2C[C@@H]1CCCB(O)O | < 0.1 µM
13 | N[C@@]1(C(=O)O)c2ccc(Cl)cc2C[C@@H]1CCCB(O)O | 0.1 to 1 µM
14 | CN[C@@]1(C(=O)O)c2cc(N)c(Cl)cc2C[C@@H]1CCCB(O)O | 0.1 to 1 µM
15 | CN[C@@]1(C(=O)O)c2cc([C@@H](C)N)ccc2C[C@@H]1CCCB(O)O | < 0.1 µM
16 | CN[C@@]1(C(=O)O)c2cc([C@@H](N)C(C)C)c(F)cc2C[C@@H]1CCCB(O)O | < 0.1 µM
17 | CN[C@@]1(C(=O)O)c2cc(C3(CN)CCC3)c(F)cc2C[C@@H]1CCCB(O)O | < 0.1 µM
18 | COc1ccc2c(c1)[C@@](N)(C(=O)O)[C@@H](CCCB(O)O)C2 | 0.1 to 1 µM
19 | CN[C@@]1(C(=O)O)c2cc(C3(C(N)=O)CCC3)c(F)cc2C[C@@H]1CCCB(O)O | 0.1 to 1 µM
20 | CN[C@@]1(C(=O)O)c2cc(C3(N)CCC3)c(F)cc2C[C@@H]1CCCB(O)O | < 0.1 µM
21 | CN[C@@]1(C(=O)O)c2cc(-c3ccc(CN)cc3)ccc2C[C@@H]1CCCB(O)O | < 0.1 µM
22 | CN[C@@]1(C(=O)O)c2cc(CN3CCCCC3(C)C)c(F)cc2C[C@@H]1CCCB(O)O | < 0.1 µM
23 | CN[C@@]1(C(=O)O)c2cc(CO)c(Cl)cc2C[C@@H]1CCCB(O)O | 0.1 to 1 µM
24 | N[C@@]1(C(=O)O)c2ccccc2C[C@@H]1CCCB(O)O | 0.1 to 1 µM
25 | CN[C@@]1(C(=O)O)c2cc([C@H](C)N)c(OCC(F)(F)F)cc2C[C@@H]1CCCB(O)O | < 0.1 µM
26 | NCCc1ccc2c(c1)[C@@](N)(C(=O)O)[C@@H](CCCB(O)O)C2 | < 0.1 µM

Row | Structure (SMILES) | IC50
27 | NC1CN(c2ccc3c(c2)C[C@H](CCCB(O)O)[C@]3(N)C(=O)O)C1 | > 1 µM
28 | CN[C@@]1(C(=O)O)c2ccccc2C[C@@H]1CCCB(O)O | 0.1 to 1 µM
29 | NCCc1ccc2c(c1)C[C@H](CCCB(O)O)[C@]2(N)C(=O)O | 0.1 to 1 µM
30 | NCc1ccc2c(c1)[C@@](N)(C(=O)O)[C@@H](CCCB(O)O)C2 | < 0.1 µM
31 | CN[C@@]1(C(=O)O)c2cc(Cc3ccccn3)c(Cl)cc2C[C@@H]1CCCB(O)O | 0.1 to 1 µM
32 | CN[C@@]1(C(=O)O)c2cc([C@@H](N)C3CC3)c(F)cc2C[C@@H]1CCCB(O)O | < 0.1 µM
33 | CC(N)c1ccc2c(c1)[C@@](N)(C(=O)O)[C@@H](CCCB(O)O)C2 (stereo partly drawn) | < 0.1 µM
34 | CN(C)[C@@]1(C(=O)O)c2cc(CN)ccc2C[C@@H]1CCCB(O)O | 0.1 to 1 µM
35 | CN[C@@]1(C(=O)O)c2cc(Cn3ccnc3N)c(Cl)cc2C[C@@H]1CCCB(O)O | < 0.1 µM
36 | CN[C@@]1(C(=O)O)c2cc(C3(N)CCC3)c(Cl)cc2C[C@@H]1CCCB(O)O | < 0.1 µM
37 | CCC(N)(CC)c1cc2c(cc1F)C[C@H](CCCB(O)O)[C@]2(NC)C(=O)O | < 0.1 µM
38 | CNCc1cc2c(cc1Cl)C[C@H](CCCB(O)O)[C@]2(NC)C(=O)O | < 0.1 µM
39 | N#Cc1cccc2c1C[C@H](CCCB(O)O)[C@]2(N)C(=O)O | > 1 µM
40 | CN[C@@]1(C(=O)O)c2cc(CNC(C)=O)ccc2C[C@@H]1CCCB(O)O | 0.1 to 1 µM
41 | N[C@@]1(C(=O)O)c2cccc(Br)c2C[C@@H]1CCCB(O)O | > 1 µM
42 | CN[C@@]1(C(=O)O)c2cc(C3CCNCC3)c(F)cc2C[C@@H]1CCCB(O)O | < 0.1 µM
43 | CN[C@@]1(C(=O)O)c2cc(CN3CC[C@@H](F)C3)c(F)cc2C[C@@H]1CCCB(O)O | < 0.1 µM
44 | CN[C@@]1(C(=O)O)c2cc(C(C)(C)CN)c(F)cc2C[C@@H]1CCCB(O)O | < 0.1 µM
45 | CN[C@@]1(C(=O)O)c2ccc(CN)cc2C[C@@H]1CCCB(O)O | < 0.1 µM
46 | CC[C@H](NC)c1cc2c(cc1F)C[C@H](CCCB(O)O)[C@]2(NC)C(=O)O | < 0.1 µM
47 | CN[C@@]1(C(=O)O)c2cc(Nc3ccccn3)c(F)cc2C[C@@H]1CCCB(O)O | 0.1 to 1 µM
48 | CN[C@@]1(C(=O)O)c2cc(C3(NC(=O)[C@H](C)N)CCC3)c(F)cc2C[C@@H]1CCCB(O)O | 0.1 to 1 µM
49 | CN[C@@]1(C(=O)O)c2cc([C@H](C)N)c(C)cc2C[C@@H]1CCCB(O)O | < 0.1 µM
50 | CN[C@@]1(C(=O)O)c2cc(CN)ccc2C[C@@H]1CCCB(O)O | < 0.1 µM
51 | CC[C@@H](N)c1cc2c(cc1Cl)C[C@H](CCCB(O)O)[C@]2(NC)C(=O)O | < 0.1 µM
